Here are results for eight compounds from US8951756B2, “Alkaline feed” (Hoffmann-La Roche Inc., priority 2010, dated 2015).

The nature of data set [1]: physchem. Particulars: water.
For data set [2] the following is noted: at 20 °C; cited from earlier work.
A short description of data set [3]: Determination of solubility of Leucine in an ammonia solution. The settings on record: for soluble: 250 ml water + 250 ml 25% (w/v) ammonia solution.
Experimental: (§1) The calculated amount of Leucine was weighted into a 500 ml flask. After addition of 250 ml deionized water the solution is sterilized by autoclavation. Thereafter 250 ml of a 25% (w/v) ammonia solution is added and determined whether the Leucine was dissolved or not. After dissolution of the Leucine the final volume of the solution was determined.
Data set [4] is described as follows: physchem. Particulars: aqueous buffer, thermodynamic from solid.
Experimental: as §1

≈ marks a conversion by molar mass, not a printed value.

What is called solubility is how much of the substance goes into solution per volume. For the compound `NC(=O)CC[C@H](N)C(=O)O` [glutamine], the solubility in data set [1] (18 °C) is < 50 mg/mL.
On to `N[C@@H](Cc1c[nH]c2ccccc12)C(=O)O` [tryptophane], for which the solubility in data set [1] (20 °C) is < 50 mg/mL. In addition, the solubility in water in data set [2] is 10 mg/mL (≈ 49 mM).
`CC(C)C[C@H](N)C(=O)O` [leucine]: in data set [3] (12.5% (w/v) ammonia versus water at 20 °C), the “solubility in alkaline solution relative to solubility in water” value is reported as “more than three times”. Moreover, the soluble result in data set [3] (Leucine concentration 17 g/l), in data set [3] (Leucine concentration 18 g/l), in data set [3] (Leucine concentration 19 g/l), in data set [3] (Leucine concentration 20 g/l), in data set [3] (Leucine concentration 21 g/l) and in data set [3] (Leucine concentration 25 g/l) was “yes” throughout. Moreover, the soluble result in data set [3] (Leucine concentration 30 g/l), in data set [3] (Leucine concentration 40 g/l), in data set [3] (Leucine concentration 50 g/l), in data set [3] (Leucine concentration 60 g/l), in data set [3] (Leucine concentration 70 g/l) and in data set [3] (Leucine concentration 71 g/l) was “yes” throughout. Moreover, the soluble result in data set [3] (Leucine concentration 72 g/l) is on record as “yes”; in data set [3] (Leucine concentration 73 g/l), “yes”; in data set [3] (Leucine concentration 74 g/l) it was “yes”; in data set [3] (Leucine concentration 75 g/l), “yes”; in data set [3] (Leucine concentration 76 g/l), “yes”; in data set [3] (Leucine concentration 77 g/l), “no”. Besides, the solubility is < 50 mg/mL in data set [1] (20 °C) and 76 mg/mL (≈ 579 mM) in data set [4].
As to `CC[C@H](C)[C@H](N)C(=O)O` [isoleucine], the solubility in data set [1] (20 °C) is < 50 mg/mL. In addition, in data set [2], the solubility in water was 40 mg/mL (≈ 305 mM).
Turning to `CSCC[C@H](N)C(=O)O` [methionine], the solubility in data set [1] (20 °C) was < 50 mg/mL.
For the compound `N[C@@H](Cc1c[nH]cn1)C(=O)O` [histidine], the solubility in data set [1] (20 °C) was < 50 mg/mL.
Regarding `CC(C)[C@H](N)C(=O)O` [valine], in data set [2], the solubility in water is 88 mg/mL (≈ 751 mM).
Regarding `N[C@@H](Cc1ccccc1)C(=O)O` [phenylalanine], the solubility in data set [1] (20 °C) was < 50 mg/mL.
